# Results: PubChem BioAssay AID588620 (NMMLSC, 2011)
# Where “and” joins values, the source holds several entries; their conditions need not be identical. Identical values can stand only once. Calls of active or inactive are those of the source.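 Rule for the calls: active = fitted half-maximal concentration below 30 µM for cell fluorescence in pump-free yeast, so likely self-fluorescent; inactive = the rest.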
# Legend:
# [1] = tested on: S. cerevisiae AD/pABC3 compound autofluorescence, flow cytometry; assay: concentration-dependent intrinsic compound fluorescence, S. cerevisiae AD/pABC3, flow cytometry, Cherry Pick1 hits, artefact control for antifungal efflux pump inhibitor project, dose response (AID 588620);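 note: red emission of unstained cells excited at 488 nm measured in PE-Texas Red channel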;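 for fluorescence response, % of control: cell median fluorescence as percent of DMSO wells so 100% equals vehicle baseline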
# [2] = as above; conditions: S. cerevisiae AD/pABC3 compound autofluorescence, flow cytometry; at 33.1 µM (top of the series)
SMILES,EC50 [1],"fluorescence response, % of control [2]"
Cc1ccc(/C=C2\CCC3=C2OC(N)=C(C#N)C3c2ccc(C)cc2)cc1 (stereo unspecified),9.04 µM,–
CCOc1ccc(NC(=O)CSc2nnc(Cc3cccn3C)n2-c2ccc(F)cc2)cc1,13.6 µM,–
COc1ccc(OC)c2c1C(=O)C(Cl)=C(Cl)C2=O,0.495 µM,–
COc1ccccc1-c1nc(C(N)=O)c2[nH]c(=O)n(-c3cccc(C)c3)c2n1,10.9 µM,–
C[C@@]12C(=O)Nc3cc(F)c(F)cc3C(=O)N1[C@H]1c3cc(Cl)ccc3OC[C@@H]1[C@@H]2c1ccccc1,12.3 µM,–
O=C1/C(=C/c2ccco2)Oc2c1ccc(O)c2CN1CCCCC1,6.07 µM,–
Cc1nn(Cc2cccc(C(=O)NC34CC5CC(CC(C5)C3)C4)c2)c(C)c1Br,4.45 µM,–
COc1cc2sc(-c3ccccc3OC)c(-c3ccc(OCCN4CCOCC4)cc3)c2cc1OC,17.2 µM,–
C=CCn1c(=O)[nH]c2nc3cc(N=CN(C)C)c(C)cc3nc2c1=O,5.13 µM,–
CCCCCCCCCCOC(=O)Cn1c(COc2ccc(Cl)cc2)[n+](C)c2ccccc21,–,106% (inactive)
Cc1ccc(-n2c(-c3ccc(Br)cc3)c[n+]3c2CCc2ccc4cccnc4c2-3)cc1,–,92.4% (inactive)
CCCCSC1=N/C(=C/c2ccsc2)C(=O)N1c1ccccc1,–,95.7% (inactive)
Cc1noc(C)c1C(=O)N1CCC2(CC1)Oc1ccc(F)cc1C(=O)C21CC(c2ccc(Cl)cc2)=NO1 (stereo unspecified),–,90.5% (inactive)
Cc1ccc(-c2cc(C(=O)Nc3ccc(S(=O)(=O)Nc4ncccn4)cc3)c3ccccc3n2)cc1,–,96.3% (inactive)
O=C(COC(=O)c1ccc(Cl)cc1O)NCCN1C(=O)CSC1=O,–,88.6% (inactive)
CC(C)(C)C(=O)CSc1nc2c(c(-c3cccs3)c1C#N)CCC2,–,92.4% (inactive)
CCN(CC)C(=O)CSc1nnc(-c2ccncc2)n1N,–,127% (inactive)
Cc1ccc(C)c(N2CCN(C(=O)C3CCCN(c4ncnc5c4nc4n5CCCCC4)C3)CC2)c1 (stereo unspecified),–,89.1% (inactive)
O=C(Cc1cccs1)N1CCN=C1SCc1ccccc1Cl,–,121% (inactive)

SMILES,EC50 [1],"fluorescence response, % of control [2]"
COc1ccc(C(=O)NC2CCCc3c2cnn3-c2cccc(C)c2C)c(OC)n1 (stereo unspecified),–,75.9% (inactive)
Cc1ccc(-n2c(=O)[nH]c3c(C(N)=O)nc(-c4ccc(C)o4)nc32)cc1,–,99.1% (inactive)
CCOc1ccc(S(=O)(=O)N(C(=O)c2ccco2)c2cc3sc(=O)oc3c3ccccc23)cc1,–,92.2% (inactive)
Cc1ccc(CN2C(=O)C(CC(C)C)Nc3ncnc(N4CCN(c5ccccc5)CC4)c32)cc1 (stereo unspecified),–,102% (inactive)
O=C(O)c1ccc(-c2ccc(/C=c3/sc4nc5ccccc5n4c3=O)o2)cc1Cl,–,365% (inactive)
Nc1cc2c(cc1C(=O)c1cccc(Br)c1)OCCO2,–,92.7% (inactive)
CCN(CC)c1ccc(/C=C/c2cc(-c3ccccc3)c3ccccc3n2)cc1,–,406% (inactive)
COc1ncccc1C(=O)NC1CCCc2c1cnn2-c1cc(C)cc(C)c1 (stereo unspecified),–,76.4% (inactive)
Cc1ccc(C(=O)N2CCC3(CC2)Oc2ccc(Cl)cc2C(=O)C32CC(c3ccccc3)=NO2)s1 (stereo unspecified),–,105% (inactive)
COc1cc2c(cc1NC(=O)CSc1nnc(Cc3cccs3)n1Cc1ccco1)oc1ccccc12,–,85.8% (inactive)
Clc1ccc(C(c2ccc(Cl)cc2)n2cc[n+](CC(OCc3ccc(Cl)cc3Cl)c3ccc(Cl)cc3Cl)c2)cc1 (stereo unspecified),–,112% (inactive)
Cc1ccc2nc(/C(C#N)=C/c3ccc(O)c(O)c3)[nH]c2c1,5.32 µM,–
Cc1ccc(OCc2cc(C(=O)NCC(C)(C)N3CCOCC3)no2)cc1C,–,116% (inactive)
O=[N+]([O-])c1ccc(N2N=C(c3ccco3)CC2c2ccccc2)cc1 (stereo unspecified),18.3 µM,–
CCC(Sc1nc2cc(OC)c(OC)cc2c(=O)n1CCc1ccc(OC)c(OC)c1)C(=O)NCCOC (stereo unspecified),–,83.6% (inactive)
CCCCn1c(=N)n(CC(O)COc2ccc(C)cc2)c2ccccc21 (stereo unspecified),–,106% (inactive)
NC(=S)NNC(=O)[C@@H]1CCCC[C@@H]1C(=O)O,–,117% (inactive)
COc1ccc2[nH]c3c(C)c4cc[n+](C)cc4c(C)c3c2c1,–,153% (inactive)
COc1ccc(OC)c(-c2nc(C(N)=O)c3[nH]c(=O)n(-c4ccc(F)cc4)c3n2)c1,–,104% (inactive)

SMILES,EC50 [1],"fluorescence response, % of control [2]"
Cc1ccc(C(=O)N2CCC3(CC2)Oc2ccc(Cl)cc2C(=O)C32CC(c3ccc(Cl)cc3)=NO2)s1 (stereo unspecified),–,94.5% (inactive)
NC1=NC[C@H](Cc2ccccc2)N1CCCCC1CCCCC1,–,127% (inactive)
N#CCCN1CCN(C(=S)c2ccc(-c3ccc(Cl)c(Cl)c3)o2)CC1,–,75.6% (inactive)
CCSc1cc(N2CCCC2)nc(-c2ccc(C)cc2)n1,–,101% (inactive)
COc1cccc(C(=O)NC2CC(C)(C)Cc3c2cnn3-c2cccc(F)c2)c1OC (stereo unspecified),–,121% (inactive)
CCOc1ccc(C(=O)Nc2cccc(-c3cc4ccccc4oc3=O)c2)cc1[N+](=O)[O-],–,94.4% (inactive)
Cc1ccc2nc(-c3ccccc3)cc(C(=O)N3CCN(S(=O)(=O)c4c(C)noc4C)CC3)c2c1,–,109% (inactive)
Cc1sc2ncnc(SC(C)C(=O)N3c4ccccc4Sc4ccccc43)c2c1C (stereo unspecified),–,126% (inactive)
Cc1cc(Cl)c(OCCCn2ccnc2)c(Br)c1,–,83.7% (inactive)
Cc1c2ccncc2c(C)c2c1[nH]c1ccccc12,–,132% (inactive) and 1000% (inactive)
O=S(=O)(NCCc1cn2ccccc2n1)c1ccc(F)c(C(F)(F)F)c1,–,118% (inactive)
Cc1nc2ccccc2n1CCc1nc2c3ccccc3nc(SCC(=O)NCc3ccco3)n2n1,12.2 µM,–
Cc1nnc(N/N=C/c2cc([N+](=O)[O-])c(N3CCC(C)CC3)cc2N2CCC(C)CC2)n1N,–,97.1% (inactive)
CCCCCCCCn1ccc(=N)cc1,–,102% (inactive)
Cc1ccc2sc(N(CCCN(C)C)C(=O)c3ccc(Br)s3)nc2c1C,–,78.2% (inactive)
COc1ccc(-c2nc3ccccc3c(=O)n2CCOc2ccc(C)cc2C)cc1,–,113% (inactive)
O=C(CSc1nnc(-c2cccnc2)n1Cc1ccco1)c1ccc(Cl)c(Cl)c1,–,81.2% (inactive)
S=C(Nc1ccc(Cl)cc1Cl)N1CCCCC1,–,135% (inactive)
